Results reported in patent US10709687B2, “FLT3 receptor inhibitor at low dosage for the treatment of neuropathic pain” (INSTITUT NATIONAL DE LA SANTE ET DE LA RECHERCHE MEDICALE …, priority 2016, dated 2020).
Read-outs that look alike come from different tables or passages of the source.

Assays:
[1] = tested on: nerve injury-induced mechanical pain hypersensitivity; assay: Spinal Nerve Ligation (SNL) model, paw pressure test; type: in vivo, rat; details: for maximal inhibition on the SNL model in rat (dose): Method 1, no experimental details given; for Human Equivalent Dose (HED) from SNL rat dose: allometric FDA factor for the rat 6.2, human body weight 60 kg
Description: Adult Sprague Dawley rats (300-340 gr) (Janvier LABS, Le Genest Saint-Isle, France) were used according to the guidelines of the International Association for the Study of Pain. Rats were housed in cages with a 12/12 hr light/dark cycle and fed food and water ad libitum. Behavioral responsiveness of the rats was tested following ten days of habituation to the testing environment and the observer. Left side L5 spinal nerve was injured as described by Kim and Chung (1992) Pain 50, 355-363. Anesthesia was induced and maintained with isoflurane. A midline incision was made at the L3-S2 level and the dorsal vertebral column from L4 to S2 was exposed. Part of the L6 transverse process was carefully removed with fine rongeurs. The L5 spinal nerve were isolated and tightly ligated distal to the DRG with a 4-0 silk suture. The wound was closed in two layers using absorbable sutures. A similar procedure was performed for the sham surgery, except that spinal nerve was not isolated and not ligated. After surgery, the posture of the sham-operated and SNL rats was closely monitored before they were used in different experiments.
Mechanical hyperalgesia was measured as the threshold to a noxious mechanical stimulus. Nociceptive thresholds (NT) were determined in handled rats by a modification of the Randall-Selitto method (Kayser et al., Brain Res 1990; 508:329-332). Briefly, a constantly increasing pressure is applied to the rat hind paw until vocalization occurs. A Basile analgesimeter (Apelex, Massy, France; stylus tip diameter, 1 mm) was used. A 600-g cut-off value was determined to prevent tissue damage.
It was administered by oral gavage at different doses in a volume of 1 ml/kg body weight in a solution of dimethylsulfoxide (DMSO) at 3%. Control animals received an equal volume of DMSO 3%.
The data are presented as means±SEM. One-way ANOVA was used to assess individual group comparisons. […] The Newman-Keuls test was used for multiple comparisons between groups.

[2] = tested on: human tumor cells expressing FLT3-ITD (MV4,11); details: mouse xenograft model; literature references in Table 1; cited from earlier work
[3] = cited from earlier work
[4] = Active (recommended or clinically efficacious) dose for treating cancer in patients; type: in vivo; details: converted for a human with a body weight of 60 kg; advanced or recurrent head and neck cancers
Source text: Active doses for FLT3 receptor inhibitor, according to Method 1 as described above, are the recommended doses, as appearing in the drug label when the product is marketed. […] Such information may be found via various sources well known by the person skilled in the art, such as articles, FDA data publications, labeling of marketed products, Summary of Product Characteristics (SmPC) from the European Medicine Agency (EMA), clinical trial descriptions from the US National Institute of Health (available at www.clinicaltrials.gov) and information on the outer product packaging.

[5] = tested on: human tumor cells expressing FLT3-ITD (MV4,11); assay: Tumor regression in mouse xenograft model sensitive to FLT3 inhibition; type: in vivo; details: allometric FDA factor for the mouse 12.3; 60 kg
Source text: The dose of FLT3 receptor inhibitor that induces tumor regression in animal models can be measured by using a mouse xenograft model, which is sensitive to FLT3 inhibition. Such a model may consist in an athymic immuno-deficient mouse implanted with human tumor cells that express a mutated, spontaneously activated, form of FLT3. […] An example of tumor cells that express FLT3-ITD is the MV4,11 cell line (Lange et al., Blood, 1987, 70:192-199).

[6] = tested on: inflammatory pain (CFA-induced mechanical hypersensitivity); assay: Complete Freund's Adjuvant (CFA) inflammatory pain model, von Frey mechanical hypersensitivity; type: in vivo; details: CFA mice; sunitinib 5 or 20 mg/kg; measured 1 and 2 days after administration
Description: Adult mice (8-10 week-old) (Janvier LABS, Le Genest Saint-Isle, France) were used according to the guidelines of the International Association for the Study of Pain. Mice were housed in cages with a 12/12 hr light/dark cycle and fed food and water ad libitum. Behavioral responsiveness of the animals was tested following ten days of habituation to the testing environment and the observer. Before testing, mice were acclimatized for 60 min in the temperature and light-controlled testing room within a plastic cylinder or on wire mesh.
A 0.6 g-von Frey filament was used for measuring punctuate hindpaw mechanical hypersensitivity with the dynamic plantar aesthesiometer (Bioseb, France). Sharp withdrawal of the stimulated hindpaw was considered as a positive response. The procedure was applied 10 times and the percentage of positive responses was calculated. Basal positive responses were recorded twice during two, consecutive days.
Inflammatory pain was produced by local injection of Complete Freund's Adjuvant (CFA), which induces a prolonged swelling that becomes maximal at 24 hrs and persists for at least 7 days (Iadarola et al., Pain. 1988; 35:313-26). […] Mechanical hypersensitivity was measured 4 days later. […]

FLT3 = target: T1, FLT3 (Mus musculus, UniProt Q00342); assay: FL potentiation of capsaicin-induced [Ca2+]i response in DRG neurons primary culture; type: cell-based, mice; details: FL 0.56 nM, capsaicin 0.5 μM
T1 construct: Primary neuronal cultures were established from lumbar (L4 to L6) dorsal root ganglia (DRG) of adult mice; endogenous in cells; host or cells: primary DRG neurons from adult mice
T1 sequence (Q00342 28-1000): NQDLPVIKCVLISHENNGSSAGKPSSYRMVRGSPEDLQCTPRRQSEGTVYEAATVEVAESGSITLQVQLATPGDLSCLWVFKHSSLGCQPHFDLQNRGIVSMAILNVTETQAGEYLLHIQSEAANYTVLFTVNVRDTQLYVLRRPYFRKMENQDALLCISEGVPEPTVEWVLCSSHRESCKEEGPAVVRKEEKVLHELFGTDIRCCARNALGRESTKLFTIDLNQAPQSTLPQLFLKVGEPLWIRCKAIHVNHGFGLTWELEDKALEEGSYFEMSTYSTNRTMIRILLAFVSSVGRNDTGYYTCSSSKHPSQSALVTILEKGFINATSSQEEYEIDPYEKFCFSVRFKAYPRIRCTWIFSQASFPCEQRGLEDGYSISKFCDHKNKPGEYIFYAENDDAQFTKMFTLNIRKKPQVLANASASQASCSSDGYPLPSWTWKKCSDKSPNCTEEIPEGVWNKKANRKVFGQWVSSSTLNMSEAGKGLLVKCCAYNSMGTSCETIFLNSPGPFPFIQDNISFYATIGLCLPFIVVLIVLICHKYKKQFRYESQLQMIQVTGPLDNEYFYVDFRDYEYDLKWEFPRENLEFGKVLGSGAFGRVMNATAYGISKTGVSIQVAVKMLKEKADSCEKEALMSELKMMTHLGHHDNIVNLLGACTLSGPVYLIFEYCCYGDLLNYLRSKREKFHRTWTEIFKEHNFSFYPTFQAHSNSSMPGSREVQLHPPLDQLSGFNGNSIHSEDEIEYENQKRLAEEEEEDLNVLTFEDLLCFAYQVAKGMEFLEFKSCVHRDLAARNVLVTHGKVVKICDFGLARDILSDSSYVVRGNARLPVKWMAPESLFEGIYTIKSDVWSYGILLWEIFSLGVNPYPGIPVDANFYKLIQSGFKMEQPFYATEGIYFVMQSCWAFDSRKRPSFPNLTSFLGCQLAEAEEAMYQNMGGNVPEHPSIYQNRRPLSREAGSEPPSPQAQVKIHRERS
Description: Primary neuronal cultures were established from lumbar (L4 to L6) dorsal root ganglia (DRG) of adult mice as previously described (Boudes et al, J. Neurosci. 29, 46, 10060-10068). Ganglia were treated twice with collagenase A (1 mg/ml, Roche Diagnostic, France) for 45 minutes (37° C.) and then with trypsin-EDTA (0.25%, Sigma, St Quentin Fallavier, France) for 30 minutes. They were mechanically dissociated by passing 8 to 10 times through the tip of a fire-polished Pasteur pipette in neurobasal (Life Technologies, Cergy Pontoise, France) culture medium supplemented with 10% foetal bovine serum and DNase (50 U/ml, Sigma, St Quentin Fallavier, France). Isolated cells were collected by centrifugation and suspended in neurobasal culture medium supplemented with 2% B27 (Life Technologies), 2 mM glutamine, penicillin/streptomycin (20 U/ml, 0.2 mg/ml). […]
For intracellular Ca^2+ measurements, DRG neurons were used 18-30 h after plating as described previously. […] A Fura filter cube with 400 long pass dichroic and D510/40m emission band pass was used to collect fluorescence emissions separately for each wavelength. Images were acquired and analyzed with Metafluor software (Molecular Devices). Changes in intracellular calcium concentrations ([Ca^2+]i) were monitored as changes of the ratio of the fura-2-fluorescence intensity recorded at 340 nm and 380 nm excitation wavelengths (ΔF340/380). […]

CCc1nc(C(N)=O)c(Nc2ccc(N3CCC(N4CCN(C)CC4)CC3)c(OC)c2)nc1NC1CCOCC1 [Gilteritinib]
maximal inhibition on the SNL model in rat (dose) [1]: 2 mg/kg
Human Equivalent Dose (HED) from SNL rat dose [1]: HED = 19.4 mg
Human Equivalent Dose (HED) from SNL rat dose ([1]; listed as gilteritinib): 19.4 mg

CO[C@@H]1[C@H](N(C)C(=O)c2ccccc2)C[C@H]2O[C@]1(C)n1c3ccccc3c3c4c(c5c6ccccc6n2c5c31)C(=O)NC4 [Midostaurin]
Human Equivalent Dose (HED) from SNL rat dose [1]: 39 mg
Human Equivalent Dose (HED) from SNL rat dose ([1]; listed as Midostaurine): HED = 39 mg

CNC(=O)c1cc(Oc2ccc(NC(=O)Nc3ccc(Cl)c(C(F)(F)F)c3)cc2)ccn1 [Sorafenib]
minimum inhibiting dose inducing maximal tumor regression [2]: 10 mg/kg

COc1cc(Nc2ncc(F)c(Nc3ccc4c(n3)N(COP(=O)(O)O)C(=O)C(C)(C)O4)n2)cc(OC)c1OC [Fostamatinib]
Active dose for treating cancer (by cancer type) ([3]; twice a day): 100-200 twice a day

Nc1ncc(-c2cnn(CCO)c2)c2scc(-c3ccc(NC(=O)Nc4cccc(F)c4)cc3)c12 [Ilorasertib]
Active dose for treating cancer (by cancer type) ([3]; once weekly, acute myelogenous leukaemia, myelodysplastic syndrome or chronic myelomonocytic leukaemia): 540 mg once weekly
minimum inhibiting dose inducing maximal tumor regression [2]: 20 mg/kg

CC(C)(C)c1cc(NC(=O)Nc2ccc(-c3cn4c(n3)sc3cc(OCCN5CCOCC5)ccc34)cc2)no1 [Quizartinib]
maximal inhibition on the SNL model in rat (dose) [1]: 0.77 mg/kg
Human Equivalent Dose (HED) from SNL rat dose [1]: HED = 7.5 mg
Human Equivalent Dose (HED) from SNL rat dose ([1]; listed as quizartinib): 7.5 mg

Cc1cc(C)c(/C=C2\C(=O)Nc3ccccc32)[nH]1 [Semaxinib]
Active dose for treating cancer (by cancer type) [4]: 235 mg
Active dose for treating cancer (by cancer type) ([3]; advanced or recurrent head and neck cancers): 145 mg/m^2

CCN(CC)CCNC(=O)c1c(C)[nH]c(/C=C2\C(=O)Nc3ccc(F)cc32)c1C [Sunitinib]
inhibiting dose giving 50% of inhibition (ID50) of SNL-induced mechanical hypersensitivity ([1]; SNL rats, oral): 0.015 mg/kg
minimal dose for maximal inhibition of pain sensitivity ([1]; SNL rats, oral administration, paw pressure 24 hours after administration): 0.075 mg/kg
Human Equivalent Dose (HED) from SNL rat dose [1]: HED = 0.73 mg
Human Equivalent Dose (HED) from SNL rat dose ([1]; listed as sunitinib): 0.73 mg
Human Equivalent Dose (HED) from mouse tumor regression dose [5]: 98 mg
mechanical hypersensitivity (percentage of withdrawal after mechanical stimulation) [6]: inactive
IC50 (FLT3; non-linear regression, read-out: IC50 for inhibition of FL potentiation of the [Ca2+]i peak response to capsaicin): 0.7 nM

C1=C/COCc2cc(ccc2OCCN2CCCC2)Nc2nccc(n2)-c2cccc(c2)COC/1 [Pacritinib]
Active dose for treating cancer (by cancer type) ([3]; once daily): 400
Active dose for treating cancer (by cancer type) ([3]; twice daily): 200

B1: FL: cytokine which is a natural ligand of the FLT3 receptor; from ABCYS SA (protein, UniProt P49771 27-235, looked up)
Fms-related tyrosine kinase 3 …: TQDCSFQHSPISSDFAVKIRELSDYLLQDYPVTVASNLQDEELCGGLWRLVLAQRWMERLKTVAGSKMQGLLERVNTEIHFVTKCAFQPPPSCLRFVQTNISRLLQETSEQLVALKPWITRQNFSRCLELQCQPDSSTLPPPWSPRPLEATAPTAPQPPLLLLLLLPVGLLLLAAAWCLHWQRTRRRTPRPGEQVPPVPSPQDLLLVEH
effect on [Ca2+]i peak response to capsaicin (FLT3): elicited a potentiation
